Reference: ChEMBL document CHEMBL1201862, “PubChem BioAssay data set” (2004)
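Cells were grown in 96-well plates and exposed to each compound for 48 hours at five concentrations; endpoints were interpolated linearly between bracketing concentrations, or set to the highest concentration if not reached. GI50 = concentration required for 50% inhibition of growth.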 The source made the active and inactive calls. Rule as the data show it: active = GI50 up to about 1.1 µM and inactive = higher.

Legend:
Assay in all cases: DTP human tumour cell line panel, 48 h
MCF7 = system: MCF7
NCI-H226 = system: NCI-H226
CAKI-1 = system: CAKI-1
OVCAR-5 = system: OVCAR-5
IGROV-1 = system: IGROV-1
MDA-MB-231 = system: MDA-MB-231
HT-29 = system: HT-29
BT-549 = system: BT-549
KM12 = system: KM12
DU-145 = system: DU-145
OVCAR-8 = system: OVCAR-8
SW-620 = system: SW-620
SF-539 = system: SF-539
SF-268 = system: SF-268
HOP-92 = system: HOP-92
NCI-H522 = system: NCI-H522
U-251 = system: U-251
PC-3 = system: PC-3
SK-MEL-2 = system: SK-MEL-2
786-0 = system: 786-0
LOX IMVI = system: LOX IMVI
HCT-15 = system: HCT-15
SK-MEL-5 = system: SK-MEL-5
EKVX = system: EKVX
COLO 205 = system: COLO 205
A498 = system: A498
SK-OV-3 = system: SK-OV-3
HL-60 = system: HL-60
OVCAR-3 = system: OVCAR-3
SNB-19 = system: SNB-19
Malme-3M = system: Malme-3M
NCI-H460 = system: NCI-H460
RPMI-8226 = system: RPMI-8226
OVCAR-4 = system: OVCAR-4
UO-31 = system: UO-31
MDA-MB-435 = system: MDA-MB-435
SNB-75 = system: SNB-75
CCRF-CEM = system: CCRF-CEM
ACHN = system: ACHN
HCT-116 = system: HCT-116
SR = system: SR
A549 = system: A549
RXF 393 = system: RXF 393
HCC 2998 = system: HCC 2998
T47D = system: T47D
NCI/ADR-RES = system: NCI/ADR-RES
Hs-578T = system: Hs-578T
HOP-62 = system: HOP-62
MDA-N = system: MDA-N
UACC-62 = system: UACC-62
SK-MEL-28 = system: SK-MEL-28
MOLT-4 = system: MOLT-4
K562 = system: K562
TK-10 = system: TK-10
UACC-257 = system: UACC-257
SF-295 = system: SF-295
SN12C = system: SN12C
NCI-H23 = system: NCI-H23
M14 = system: M14

Measured: GI50

c1ccc2c(c1)nnn2C1CCCCO1 (stereo unspecified)
> 100 µM: HCT-15
inactive: MCF7 > 100 µM | NCI-H226 > 100 µM | CAKI-1 > 100 µM | OVCAR-5 > 100 µM | IGROV-1 > 100 µM | MDA-MB-231 > 100 µM | HT-29 > 100 µM | BT-549 > 100 µM | KM12 > 100 µM | DU-145 > 100 µM | OVCAR-8 > 100 µM | SW-620 > 100 µM | SF-539 > 100 µM | SF-268 > 100 µM | HOP-92 > 100 µM | NCI-H522 > 100 µM | U-251 > 100 µM | PC-3 > 100 µM | SK-MEL-2 > 100 µM | 786-0 > 100 µM | LOX IMVI > 100 µM | SK-MEL-5 > 100 µM | EKVX > 100 µM | COLO 205 > 100 µM | A498 > 100 µM | SK-OV-3 > 100 µM | HL-60 > 100 µM | OVCAR-3 > 100 µM | SNB-19 > 100 µM | Malme-3M > 100 µM | NCI-H460 > 100 µM | RPMI-8226 > 100 µM | OVCAR-4 > 100 µM | UO-31 > 100 µM | MDA-MB-435 > 100 µM | SNB-75 > 100 µM | CCRF-CEM > 100 µM | ACHN > 100 µM | HCT-116 > 100 µM | SR > 100 µM | A549 > 100 µM | RXF 393 > 100 µM | HCC 2998 > 100 µM | T47D > 100 µM | NCI/ADR-RES > 100 µM | Hs-578T > 100 µM | HOP-62 > 100 µM | MDA-N > 100 µM | UACC-62 > 100 µM | SK-MEL-28 > 100 µM | MOLT-4 > 100 µM | K562 > 100 µM | TK-10 > 100 µM | UACC-257 > 100 µM | SF-295 > 100 µM | SN12C > 100 µM | NCI-H23 > 100 µM | M14 > 100 µM

CCOc1cc2c(cc1OC(C)=O)C(=O)CC[C@H]1C3CC[C@H](OC(C)=O)[C@@]3(C)CC[C@H]21 (stereo partly specified)
inactive: MCF7 > 100 µM | NCI-H226 > 100 µM | CAKI-1 > 100 µM | OVCAR-5 > 100 µM | MDA-MB-231 > 100 µM | HT-29 > 100 µM | BT-549 > 100 µM | KM12 > 100 µM | DU-145 > 100 µM | OVCAR-8 > 100 µM | SW-620 > 100 µM | SF-539 > 100 µM | SF-268 > 100 µM | HOP-92 > 100 µM | NCI-H522 > 100 µM | U-251 > 100 µM | PC-3 > 100 µM | SK-MEL-2 > 100 µM | 786-0 > 100 µM | LOX IMVI > 100 µM | SK-MEL-5 > 100 µM | EKVX > 100 µM | COLO 205 > 100 µM | A498 > 100 µM | SK-OV-3 > 100 µM | HL-60 > 100 µM | OVCAR-3 > 100 µM | SNB-19 > 100 µM | Malme-3M > 100 µM | NCI-H460 > 100 µM | RPMI-8226 > 100 µM | OVCAR-4 > 100 µM | UO-31 > 100 µM | MDA-MB-435 > 100 µM | SNB-75 > 100 µM | CCRF-CEM > 100 µM | ACHN > 100 µM | HCT-116 > 100 µM | SR > 100 µM | A549 > 100 µM | RXF 393 > 100 µM | HCC 2998 > 100 µM | T47D > 100 µM | NCI/ADR-RES > 100 µM | Hs-578T > 100 µM | HOP-62 > 100 µM | MDA-N > 100 µM | UACC-62 > 100 µM | SK-MEL-28 > 100 µM | MOLT-4 > 100 µM | K562 > 100 µM | TK-10 > 100 µM | UACC-257 > 100 µM | SF-295 > 100 µM | NCI-H23 > 100 µM | M14 > 100 µM
> 100 µM: HCT-15
